Earlier results, collected in publication PMC9363195, “Preclinical Pharmacokinetics, Biodistribution, and Acute Toxicity Evaluation of Caerin 1.9 Peptide in Sprague Dawley Rats” (Evidence-based Complementary and Alternative Medicine : eCAM, 2022).

Tested on: TC-1 cells
Conditions: cited from earlier work
From the text: Caerin 1.1 and Caerin 1.9 are stable.

## Caerin 1.1
Heated at 100°C for 5 minutes
  prevention of development of TC-1 cells after heating: equally effective
Room temperature, 7 days, low pH environment (pH5.5-7)
  activity after incubation: remained active
temperature-sensitive gel, room temperature, 30 days
  bioactivity after incubation in temperature-sensitive gel: maintained a similar degree of bioactivity
